Key:
human D2 receptor = human D2 receptor (Homo sapiens (Human), UniProt P14416); assay: Test 1: binding activity for human D2 receptor ([3H]Spiperone, CHO cell membrane fraction); settings: human D2 receptor, [3H]Spiperone
Method: (§1) Test 1: Evaluation of Binding Activity for Human 5-HT1A Receptor, Human 5-HT2A Receptor, and Human D2 Receptor
(§2) Binding affinity of the present compound for human 5-HT1A receptor, human 5-HT2A receptor, and human D2 receptor was measured by the following procedures.
(§3) Each mixture was incubated at room temperature for 60 minutes. Then, the mixture was added quickly on a glassfiber filter plate (Multiscreen FB, Millipore, Inc.) coated with 0.3% aqueous polyethylenimine, and vacuum-filtered. Radioactivity remaining on the filter was measured with a liquid scintillation counter (PerkinElmer, Inc.). Binding inhibition rate was calculated from the following formula.
(§4) Ki of each compound was calculated from the following formula. Binding inhibition constant (Ki)=IC50/(1+S/Kd) wherein S is concentration of ligand; Kd is a binding dissociation constant of ligand to membrane, which is calculated from a saturated binding experiment conducted with the same cell membrane. A small Ki value means strong binding ability to a receptor.

hERG channel = hERG channel (Homo sapiens (Human), UniProt Q12809); assay: Test 6-1: inhibitory activity for hERG channel (auto patch clamp, Qpatch); type: cell-based; settings: whole cell auto patch clamp, hERG-CHO cells; read-out: hERG inhibition IC50
Method: Test 6-1: Evaluation of Inhibitory Activity for hERG Channel
Inhibitory activity of the present compound for hERG channel was measured by whole cell patch clamp method with an auto patch clamp system using CHO cells in which hERG channel involved in human rapidly activating delayed rectifier potassium current (IKr) was forcibly expressed.
hERG-CHO cells purchased from ChanTest Cop. were cultured in a CO2 incubator at 37° C., and dissociated from a flask with trypsin shortly before the measurement of hERG current, to prepare a cell suspension.
Extracellular fluid: 2 mmol/L CaCl2, 1 mmol/L MgCl2, 10 mmol/L HEPES, 4 mmol/L KCl, 145 mmol/L NaCl, 10 mmol/L Glucose
Intracellular fluid: 5.4 mmol/L CaCl2, 1.8 mmol/L MgCl2, 10 mmol/L HEPES, 31 mmol/L KOH, 10 mmol/L EGTA, 120 mmol/L KCl, 4 mmol/L Na2-ATP
Test compound solution: Test compound was dissolved in DMSO to reach the concentration of 2 mmol/L or 20 mmol/L, in order to prepare a test compound solution. […] (Measurement of Current Value and Data Analysis)
The cell suspension, the extracellular fluid, the intracellular fluid, and the measurement plate were set in the auto patch clamp system, and hERG current was measured by whole cell patch clamp method. […] Each pulse interval was 15 seconds. The data analysis was carried out with Qpatch Assay Software (Biolin Scientific). The test was carried out by applying incrementally 4 concentrations of each test compound, and the average of the maximum peak tail currents which were obtained from the last 3 stimulations in each concentration was determined as the evaluated data. Based on the current inhibition rate for a pre-applied current at each concentration of each test compound, IC50 value was calculated by Hill equation with the software.

human 5-HT1A receptor [1] = molecular target: T1, human 5-HT1A receptor (Homo sapiens (Human), UniProt P08908); assay: Test 1: binding activity for human 5-HT1A receptor ([3H]8-OH-DPAT, CHO cell membrane fraction)
Method: as §1, §2, §3
as §4, with “IC50 value was calculated by Hill analysis (Physiology, 1910, 40, 190-200). Ki of” for “Ki of”

[2] = Test 4: metabolic stability test in human hepatic microsome; type: in vitro ADME; settings: 0.1 mg/mL microsome, 0.1 μmol/L compound, 37° C., 30 minutes
Method: Test 4: Metabolic Stability Test in Human Hepatic Microsome
The stability of the present compound in human hepatic microsome metabolism was evaluated as mentioned below. Human hepatic microsome was obtained from Xenontech. Human hepatic microsome, NADPH, and each test compound were mixed in 25 mmol/L phosphate buffer solution (pH 7.4) to reach the following concentrations as shown below, and the mixture was incubated at 37° C. for 30 minutes. • Human hepatic microsome: 0.1 mg/mL • NAPDH: 3.2 mmol/L • Test compound: 0.1 μmol/L
The residual ratio of the test compound in each sample after 30 minutes was measured by LC-MS, and the metabolic stability in human hepatic microsome was calculated from the following formula. Metabolic stability in human hepatic microsome (mL/min/mg protein)=−LN (residual ratio)/30/0.1

human 5-HT1A receptor [3] = molecular target: T1, human 5-HT1A receptor; assay: Test 2: agonist activity for human 5-HT1A receptor ([35S]GTPγS binding); type: biochemical; settings: for EC50: [35S]GTPγS binding, concentration at which half the activity of Emax was obtained; for Emax at 10 µM: agonist activity in the presence of 10 μM of compound, relative to 100 μmol/L 5-HT
Method: Test 2: Evaluation of Agonist Activity for Human 5-HT1A Receptor
CHO cell membrane fraction in which human 5-HT1A receptor was expressed as used in Test 1 was purchased. To a buffer containing guanosine diphosphate were added a test compound dissolved in DMSO, each receptor membrane sample diluted with buffer, and [^35S] Guanosine 5′-O-[gamma-thio]triphosphate (GTPγS). The mixture was incubated at room temperature for 60 minutes. Then, the mixture was added quickly on a glassfiber filter plate (Multiscreen FB, Millipore, Inc.), and vacuum-filtered. Radioactivity remaining on the […] was measured with a liquid scintillation counter. Agonist activity was calculated from the following formula.

human D2 receptor, sequence (P14416 whole entry): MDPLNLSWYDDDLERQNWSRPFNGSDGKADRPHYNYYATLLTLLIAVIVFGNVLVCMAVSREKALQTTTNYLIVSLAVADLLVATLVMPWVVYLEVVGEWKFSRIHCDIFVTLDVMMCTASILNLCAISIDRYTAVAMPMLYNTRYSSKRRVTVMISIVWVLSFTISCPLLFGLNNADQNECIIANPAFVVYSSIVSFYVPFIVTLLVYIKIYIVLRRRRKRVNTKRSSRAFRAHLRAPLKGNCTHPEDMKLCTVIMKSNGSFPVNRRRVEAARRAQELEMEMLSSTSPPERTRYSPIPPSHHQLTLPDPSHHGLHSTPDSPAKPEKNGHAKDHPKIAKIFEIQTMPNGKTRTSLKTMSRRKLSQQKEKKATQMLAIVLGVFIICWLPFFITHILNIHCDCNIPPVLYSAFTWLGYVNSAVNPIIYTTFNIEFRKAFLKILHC
T1 sequence (P08908 whole entry): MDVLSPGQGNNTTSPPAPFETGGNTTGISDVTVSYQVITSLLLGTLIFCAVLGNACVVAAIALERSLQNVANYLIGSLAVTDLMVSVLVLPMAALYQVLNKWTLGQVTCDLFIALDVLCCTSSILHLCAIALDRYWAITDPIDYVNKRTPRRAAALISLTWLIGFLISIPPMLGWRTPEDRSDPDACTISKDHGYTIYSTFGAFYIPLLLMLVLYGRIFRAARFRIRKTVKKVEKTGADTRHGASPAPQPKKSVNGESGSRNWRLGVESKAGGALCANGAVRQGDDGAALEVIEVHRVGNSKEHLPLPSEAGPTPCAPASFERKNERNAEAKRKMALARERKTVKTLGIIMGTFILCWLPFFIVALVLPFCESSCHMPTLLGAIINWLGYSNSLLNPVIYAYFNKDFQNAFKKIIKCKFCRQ
hERG channel, sequence (Q12809 whole entry): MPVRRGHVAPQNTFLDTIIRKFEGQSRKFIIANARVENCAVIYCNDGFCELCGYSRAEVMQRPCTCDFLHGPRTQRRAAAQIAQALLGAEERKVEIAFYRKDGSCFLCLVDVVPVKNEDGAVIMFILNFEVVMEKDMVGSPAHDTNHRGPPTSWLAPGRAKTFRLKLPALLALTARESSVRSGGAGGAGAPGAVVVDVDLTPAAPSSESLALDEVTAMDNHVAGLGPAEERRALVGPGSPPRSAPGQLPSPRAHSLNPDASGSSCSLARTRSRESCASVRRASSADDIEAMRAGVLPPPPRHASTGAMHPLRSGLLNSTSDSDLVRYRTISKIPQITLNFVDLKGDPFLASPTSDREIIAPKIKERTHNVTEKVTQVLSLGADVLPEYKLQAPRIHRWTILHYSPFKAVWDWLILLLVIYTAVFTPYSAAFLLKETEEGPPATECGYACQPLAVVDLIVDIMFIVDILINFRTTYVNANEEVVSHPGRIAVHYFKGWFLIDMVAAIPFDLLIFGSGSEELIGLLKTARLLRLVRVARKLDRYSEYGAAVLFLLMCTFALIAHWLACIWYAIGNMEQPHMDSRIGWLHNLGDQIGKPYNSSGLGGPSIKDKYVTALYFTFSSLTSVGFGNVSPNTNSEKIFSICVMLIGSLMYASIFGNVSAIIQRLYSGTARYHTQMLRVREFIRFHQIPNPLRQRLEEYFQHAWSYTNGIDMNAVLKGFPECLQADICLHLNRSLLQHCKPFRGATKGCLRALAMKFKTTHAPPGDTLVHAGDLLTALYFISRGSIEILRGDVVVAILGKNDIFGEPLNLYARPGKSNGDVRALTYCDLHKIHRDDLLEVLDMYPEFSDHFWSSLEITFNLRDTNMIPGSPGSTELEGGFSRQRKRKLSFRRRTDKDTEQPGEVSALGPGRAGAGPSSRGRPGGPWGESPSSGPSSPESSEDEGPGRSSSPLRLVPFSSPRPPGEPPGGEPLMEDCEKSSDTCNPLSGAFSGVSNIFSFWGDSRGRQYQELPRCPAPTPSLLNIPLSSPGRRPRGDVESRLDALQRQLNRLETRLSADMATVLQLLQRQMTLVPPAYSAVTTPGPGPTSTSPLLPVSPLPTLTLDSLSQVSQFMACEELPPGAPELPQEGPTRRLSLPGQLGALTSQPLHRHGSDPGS

Ki (human D2 receptor) [µM]	Ki (human 5-HT1A receptor [1]) [µM]	Metabolic stability in human hepatic microsome [2] [mL/min/mg protein]	EC50 (human 5-HT1A receptor [3]) [µM]	Emax at 10 µM (human 5-HT1A receptor [3]) [%]	Structure (SMILES)	IC50 (hERG channel) [µM]
0.143	0.00068	0.063	0.0645	42	Cn1ncc2c1CCC(CCN1CCN(c3nsc4ccccc34)CC1)C2=O (centres unmarked) [Example 29]	2.3
0.093	0.00041	0.358	0.00199	64	CCc1cc2c(cn1)C(=O)N(CCN1CCN(c3nsc4ccccc34)CC1)CC2 [Example 104, 2-{2-[4-(1,2-Benzoisothiazol-3-yl)piperazin-1-yl]ethyl}-6-ethyl-3,4-dihydro-2,7-naphthyridin-1(2H)-one]	0.7
1.07	0.00677	0.070	0.0577	65	Cc1ncc2c(n1)CCN(CCN1CCN(c3nsc4ccccc34)CC1)C2=O [Example 90]	> 10
0.826	0.00936	0.149	0.0151	41	CCc1ncc2c(n1)CCN(CCN1CCN(c3nsc4ccccc34)CC1)C2=O [Example 93, 6-{2-[4-(1,2-Benzoisothiazol-3-yl)piperazin-1-yl]ethyl}-2-ethyl-7,8-dihydropyrido[4,3-d]pyrimidin-5(6H)-one]	6.6
0.121	0.00022	0.04	0.0018	76	Cn1ncc2c1CCCN(CCN1CCN(c3nsc4ccccc34)CC1)C2=O [Example 44]	7.7
1.89	0.00077	0.091	0.00472	52	COc1cc2c(cn1)C(=O)N(CCN1CCN(c3noc4ccccc34)CC1)CC2 [Example 20]	5.4
0.145	0.00102	0.924	0.1	52	O=C1c2cn(-c3ccccc3)nc2CCN1CCN1CCN(c2nsc3ccccc23)CC1 [Example 168]	< 0.3
	0.00117	0.269	0.00319	65	O=C1c2oc(C3CC3)nc2CCN1CCN1CCN(c2nsc3ccccc23)CC1 [Example 67]	1.6

The remaining lines, values behind:

Structure (SMILES)	Ki (human D2 receptor) [µM]	Ki (human 5-HT1A receptor [1]) [µM]	Metabolic stability in human hepatic microsome [2] [mL/min/mg protein]	EC50 (human 5-HT1A receptor [3]) [µM]	Emax at 10 µM (human 5-HT1A receptor [3]) [%]	IC50 (hERG channel) [µM]
Cc1nccc2c1C(=O)N(CCN1CCN(c3noc4ccccc34)CC1)CC2 [Example 85]	1.07	0.101	0.046	0.0411	35	> 10
Cc1n[nH]c2c1C(=O)N(CCN1CCC(c3noc4ccccc34)CC1)CC2 [Example 99, 5-{2-[4-(1,2-Benzoisoxazol-3-yl)piperidin-1-yl]ethyl}-3-methyl-1,5,6,7-tetrahydro-4H-pyrazolo[4,3-c]pyridin-4-one]	0.28	0.0215	<0.01	0.185	40	2.9
O=C1c2cn[nH]c2CCCN1CCN1CCC(c2noc3ccccc23)CC1 [Example 97, 5-{2-[4-(1,2-Benzoisoxazol-3-yl)piperidin-1-yl]ethyl}-5,6,7,8-tetrahydropyrazolo[4,3-c]azepin-4(1H)-one]	0.136	0.0175	<0.01	0.447	42	2.6
Cn1ccc2c1CCN(CCN1CCN(c3noc4ccccc34)CC1)C2=O [Example 170]	1.68	0.0352	<0.05	0.823	42	7.4
Cc1ncc2c(n1)CCC(CCN1CCC(c3noc4ccccc34)CC1)C2=O (centres unmarked) [Example 150]	0.188	0.00536	<0.05	0.0369	54	1.2
Cc1cncc2c1CCN(CCN1CCC(c3noc4ccccc34)CC1)C2=O [Example 138]	0.076	0.0276	0.083	0.1	32	1.2
Cc1noc2c1C(=O)N(CCN1CCC(c3noc4ccccc34)CC1)CC2 [Example 33]	1.01	0.00935	0.074	0.463	49	0.6
O=C1c2sccc2CCN1CCN1CCC(c2noc3ccccc23)CC1 [Example 126]	0.093	0.0159	0.135	0.0672	60	< 0.3
CC(C)c1nc2c(o1)C(=O)N(CCN1CCC(c3noc4ccccc34)CC1)CC2 [Example 164]		0.0117	0.097	0.0695	48	1
O=C1c2cn[nH]c2CCN1CCN1CCC(c2noc3ccccc23)CC1 [Example 189, 5-{2-[4-(1,2-Benzoisoxazol-3-yl)piperidin-1-yl]ethyl}-1,5,6,7-tetrahydro-4H-pyrazolo[4,3-c]pyridin-4-one]		0.0984	<0.05	0.69	49	1.8
O=c1c2cnccc2ccn1CCN1CCN(c2nsc3ccccc23)CC1 [Example 11]	0.316	0.00295	0.245			2.6
CC(C)n1ncc2c1CCN(CCN1CCC(c3noc4ccccc34)CC1)C2=O [Example 159]	0.373	0.255	<0.05	0.854	18	
CC(C)c1ncc2c(=O)n(CCN3CCN(c4nsc5ccccc45)CC3)ccc2n1 [Example 181]	3.69	0.0486	0.791	0.079	53	

From patent US10745401B2, “Condensed lactam derivative” (Sumitomo Dainippon Pharma Co., Ltd., priority 2018, dated 2020)
